Source: US8450357B2, “Compositions comprising an aryl pyrazole and/or a formamidine, methods and uses thereof” (Merial Limited, priority 2008, dated 2013)

Tests used:
[1] = Stability of amitraz in solution, aged at 50° C., HPLC; assay type: physicochemical; settings: 28 % (w/v) Amitraz in Methyl isobutyl ketone (MIK)
Experimental: Formulation comprising amitraz in anisole (formulation L), butyl acetate (formulation M), methyl isobutyl ketone and ethyl benzoate were evaluated for stability by HPLC, similarly to the stability study for formulations comprising compound 1. Thus the formulations were tested for initial concentration of amitraz % (w/v) and aged at 50° C. for three months. The concentration of amitraz in each formulation was determined at 1 month, 2 months and 3 months to determine the stability of amitraz in each formulation.

[2] = Crystal formation of amitraz formulations on storage or on the coat; assay type: physicochemical
Experimental: Solutions of amitraz in certain solvents at high concentration result in the appearance of crystals over time. […] The solubility of amitraz in butyl acetate is lower then in anisole, MIK and ethyl benzoate. […] Additionally, when amitraz (25%) in butyl acetate formulations were stored at 50° C. in a chamber, they evaporated slightly. […] Again, lowering concentration to 20% and addition of co-solvents with higher solubility of amitraz avoided crystallization of amitraz. Unexpectedly, this addition of co-solvents caused the effects described below in Example 9.

[3] = system: fleas (Ctenocephalides felis); test: Study A: flea efficacy of Compound 1 spot-on formulations in dogs; assay type: in vivo
Experimental: An initial clinical study was conducted to test the efficacy of Compound 1 (3-cyano-1-(2-chloro-6-fluoro-4-trifluoromethylphenyl)-4-dichlorofluoromethylsulfinyl-5-methyl-1H-pyrazole) against ticks and fleas in various test formulations. Five test groups and an untreated control were evaluated. Each test group included six dogs. Compound was dissolved in a solvent or a combination of two or more solvents at 10% w/w. Test articles were formulated as topical spot-on solutions containing compound 1, 10% w/v in a solvent or a combination of solvents as described above. Dogs were infested with approximately 50 ticks (Rhipicephalus sanguineus) on days −1, 7, 14, 21, 28, 35 and 42. Dogs were also infested with approximately 100 fleas (Ctenocephalides felis) on days −1, 8, 15, 22, 29, 36, and 43. Treatment was applied by parting the hair and applying the formulation directly onto the skin on one spot at the midline of the neck, between the base of the skull and the shoulder blades. The dose rate of each of the topical solutions was 0.1 ml/kg (10 mg/kg) body weight. The efficacy of compound 1 in various formulations is shown Table 2 below.

[4] = Stability of formulations comprising Compound 1, accelerated @ 50° C., HPLC; assay type: physicochemical; settings: solvents or combinations of solvents in Table 1
Experimental: Compound 1 (3-cyano-1-(2-chloro-6-fluoro-4-trifluoromethylphenyl)-4-dichlorofluoromethylsulfinyl-5-methyl-1H-pyrazole) was dissolved in a solvent or a combination of two or more solvents at 10% w/w. The formulations thus prepared were analyzed, using HPLC, for the content of compound 1 as the initial timepoint reading. Then all formulations were placed at 50° C., and the content of compound 1 in each of them was analyzed at the timepoints of two, four, six and, in some cases, 10 weeks. […] Thus formulations of Compound 1 in the solvents/carriers identified below are shown to be sufficiently stable.

[5] = 14C radiolabeled drug, spot-on administration, beagle dogs; cited from earlier work

Cc1ccc(/N=C/N(C)/C=N/c2ccc(C)cc2C)c(C)c1 [Amitraz, amitraz]
Amitraz % theoretical ([1]; 1 month at 50° C.): 93 % theoretical
Amitraz % theoretical ([1]; 2 months at 50° C.): 98 % theoretical
Amitraz % theoretical ([1]; 3 months at 50° C.): 100 % theoretical
crystals upon cooling to room temperature ([2]; amitraz (25%) in butyl acetate stored at 50° C. in a chamber): precipitated crystals
crystals on the coat of animals ([2]; amitraz (25%) in butyl acetate, clinical studies): produced white crystals

Cc1c([S+]([O-])C(F)(Cl)Cl)c(C#N)nn1-c1c(F)cc(C(F)(F)F)cc1Cl (stereo not drawn) [Compound 1, 3-cyano-1-(2-chloro-6-fluoro-4-trifluoromethylphenyl)-4-dichlorofluoromethylsulfinyl-5-methyl-1H-pyrazole]
% Efficacy against fleas ([3]; Day 2, Trt. Group 2: 10 mg/kg in Butyl acetate/octyl acetate): 99.6%
% Efficacy against fleas ([3]; Day 2, Trt. Group 3: 10 mg/kg in Diethylene glycol monoethyl ether (transcutol)/N-methyl-2-pyrrolidone): 96.0%
% Efficacy against fleas ([3]; Day 2, Trt. Group 4: 10 mg/kg in Dipropylene glycol monomethyl ether/butyl acetate): 100%
% Efficacy against fleas ([3]; Day 2, Trt. Group 5: 10 mg/kg in Diisopropyl adipate): 100%
% Efficacy against fleas ([3]; Day 2, Trt. Group 6: 10 mg/kg in Triacetin): 98.0%
% Efficacy against fleas ([3]; Day 9, Trt. Group 2: 10 mg/kg in Butyl acetate/octyl acetate): 100%
% Efficacy against fleas ([3]; Day 9, Trt. Group 3: 10 mg/kg in Diethylene glycol monoethyl ether (transcutol)/N-methyl-2-pyrrolidone): 100%
% Efficacy against fleas ([3]; Day 9, Trt. Group 4: 10 mg/kg in Dipropylene glycol monomethyl ether/butyl acetate): 100%
% Efficacy against fleas ([3]; Day 9, Trt. Group 5: 10 mg/kg in Diisopropyl adipate): 100%
% Efficacy against fleas ([3]; Day 9, Trt. Group 6: 10 mg/kg in Triacetin): 100%
% Efficacy against fleas ([3]; Day 16, Trt. Group 2: 10 mg/kg in Butyl acetate/octyl acetate): 100%
% Efficacy against fleas ([3]; Day 16, Trt. Group 3: 10 mg/kg in Diethylene glycol monoethyl ether (transcutol)/N-methyl-2-pyrrolidone): 99.8%
% Efficacy against fleas ([3]; Day 16, Trt. Group 4: 10 mg/kg in Dipropylene glycol monomethyl ether/butyl acetate): 100%
% Efficacy against fleas ([3]; Day 16, Trt. Group 5: 10 mg/kg in Diisopropyl adipate): 100%
% Efficacy against fleas ([3]; Day 16, Trt. Group 6: 10 mg/kg in Triacetin): 100%
% Efficacy against fleas ([3]; Day 23, Trt. Group 2: 10 mg/kg in Butyl acetate/octyl acetate): 99.4%
% Efficacy against fleas ([3]; Day 23, Trt. Group 3: 10 mg/kg in Diethylene glycol monoethyl ether (transcutol)/N-methyl-2-pyrrolidone): 98.8%
% Efficacy against fleas ([3]; Day 23, Trt. Group 4: 10 mg/kg in Dipropylene glycol monomethyl ether/butyl acetate): 99.5%
% Efficacy against fleas ([3]; Day 23, Trt. Group 5: 10 mg/kg in Diisopropyl adipate): 100%
% Efficacy against fleas ([3]; Day 23, Trt. Group 6: 10 mg/kg in Triacetin): 100%
% Efficacy against fleas ([3]; Day 30, Trt. Group 2: 10 mg/kg in Butyl acetate/octyl acetate): 94.5%
% Efficacy against fleas ([3]; Day 30, Trt. Group 3: 10 mg/kg in Diethylene glycol monoethyl ether (transcutol)/N-methyl-2-pyrrolidone): 91.4%
% Efficacy against fleas ([3]; Day 30, Trt. Group 4: 10 mg/kg in Dipropylene glycol monomethyl ether/butyl acetate): 83.2%
% Efficacy against fleas ([3]; Day 30, Trt. Group 5: 10 mg/kg in Diisopropyl adipate): 92.9%
% Efficacy against fleas ([3]; Day 30, Trt. Group 6: 10 mg/kg in Triacetin): 99.7%
% Efficacy against fleas ([3]; Day 37, Trt. Group 2: 10 mg/kg in Butyl acetate/octyl acetate): 80.4%
% Efficacy against fleas ([3]; Day 37, Trt. Group 3: 10 mg/kg in Diethylene glycol monoethyl ether (transcutol)/N-methyl-2-pyrrolidone): 85.3%
% Efficacy against fleas ([3]; Day 37, Trt. Group 4: 10 mg/kg in Dipropylene glycol monomethyl ether/butyl acetate): 76.5%
% Efficacy against fleas ([3]; Day 37, Trt. Group 5: 10 mg/kg in Diisopropyl adipate): 69.1%
% Efficacy against fleas ([3]; Day 37, Trt. Group 6: 10 mg/kg in Triacetin): 98.9%
% Efficacy against fleas ([3]; Day 44, Trt. Group 2: 10 mg/kg in Butyl acetate/octyl acetate): 46.9%
% Efficacy against fleas ([3]; Day 44, Trt. Group 3: 10 mg/kg in Diethylene glycol monoethyl ether (transcutol)/N-methyl-2-pyrrolidone): 38.9%
% Efficacy against fleas ([3]; Day 44, Trt. Group 4: 10 mg/kg in Dipropylene glycol monomethyl ether/butyl acetate): 31.1%
% Efficacy against fleas ([3]; Day 44, Trt. Group 5: 10 mg/kg in Diisopropyl adipate): 40.3%
% Efficacy against fleas ([3]; Day 44, Trt. Group 6: 10 mg/kg in Triacetin): 93.0%
stability of Compound 1 [4]: good stability

N#Cc1nn(-c2c(Cl)cc(C(F)(F)F)cc2Cl)c(N)c1[S+]([O-])C(F)(F)F (stereo not drawn) [fipronil, 5-amino-3-cyano-1-(2,6-dichloro-4-trifluoromethylphenyl)-4-trifluoromethylsulfinylpyrazole]
time detected in the whole skin after treatment [5]: up to 56 days
